For 88 molecules, percent span results are on record in PubChem BioAssay AID1329 (NMMLSC, 2008).

Calls of active or inactive are those of the source. How the calls were made is not given here.

This test deals with Induced myeloid leukemia cell differentiation protein Mcl-1 (Homo sapiens) (UniProt Q07820). Kind of test: modulators of Bim peptide binding to Mcl-1, dose response, biochemical, bead-based flow cytometry, multiplexed, human (AID 1329). Particulars: Bim peptide-Mcl-1 binding, MCF.
Induced myeloid leukemia cell differentiation protein Mcl-1 (Homo sapiens), sequence (Q07820 whole entry, looked up): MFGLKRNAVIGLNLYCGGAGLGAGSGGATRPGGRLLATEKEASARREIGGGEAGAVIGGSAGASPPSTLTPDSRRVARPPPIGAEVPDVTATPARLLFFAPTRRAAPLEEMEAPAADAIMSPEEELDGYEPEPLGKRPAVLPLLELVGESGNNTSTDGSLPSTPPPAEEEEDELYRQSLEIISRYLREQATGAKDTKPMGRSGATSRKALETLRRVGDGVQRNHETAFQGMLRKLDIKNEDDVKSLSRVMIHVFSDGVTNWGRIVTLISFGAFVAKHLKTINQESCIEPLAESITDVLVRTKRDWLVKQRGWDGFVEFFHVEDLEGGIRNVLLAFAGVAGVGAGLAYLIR
Regarding `COc1ccc(C2C(C#N)=C(C)NC3=C2S(=O)(=O)c2ccccc23)cc1` (stereo not drawn), the percent span entry was “inactive”. Consider `COc1ccc(N2CCN(C(=O)c3cc(=O)[nH]c4ccccc34)CC2)cc1`, for which the percent span entry was “inactive”.

As for `CCOC(=O)CSC1=NC(=O)/C(=C/c2ccc(Br)cc2)S1`, the percent span result was “inactive”. To `CNC(=O)c1c(N)sc2c1CCCCC2` belongs “inactive”. Consider `COC(=O)c1sc(NC(=O)c2ccc(Cn3cc(Cl)cn3)o2)c(C#N)c1C`, for which the percent span entry is “inactive”. `O=C(NCc1ccccn1)c1ccc2nc(-c3ccco3)c(-c3ccco3)nc2c1`: the percent span result is “inactive”. As to `CC1CCN(C2(O)C(=O)Nc3ccc(Br)cc32)CC1` (stereo not drawn), the percent span result is “inactive”. As for `CCOc1cc(NC(=S)NC)c(OCC)cc1NC(=O)c1ccc(OC)cc1`, the percent span entry is “inactive”. For `CCn1c(C)nc2cc(C(=O)N/N=C/c3ccc(O)c(O)c3O)ccc21`, the percent span entry is “inactive”.

For the molecule `Cc1ccc(-c2cc(-c3ccc(F)cc3)c(C#N)c(N)n2)o1`, the percent span result was “inactive”. With `Cn1c(N)c(C(=O)COC(=O)c2cc(-c3ccco3)nc3ccccc23)c(=O)n(C)c1=O`, the percent span entry is “inactive”. `CNc1nc2ccccc2n1/N=C/c1cccc(OC)c1OC`: the percent span result was “inactive”.

`CN(Cc1ccccc1)c1nc2c(c(=O)[nH]c(=O)n2C)n1C`: the percent span result is “inactive”. As for `COC(=O)CCC(=O)Nc1sc(C)c(C)c1C(N)=O`, the percent span entry was “inactive”.

For the molecule `O=C(Nc1cccc(Cl)c1)Nc1ccc(Cl)cn1`, the percent span result was “inactive”. For `CCC(=O)N(CC)C1=C(O)c2ccccc2C(=O)C1=O`, the percent span result is “inactive”. `O=C(Nc1ccc(Cl)cn1)Nc1ccccc1F`: the percent span result is “inactive”. Turning to `COc1cc(C=Nc2cccc(C)c2)c(O)c([N+](=O)[O-])c1`, the percent span result is “inactive”. Regarding `CC(C)NS(=O)(=O)c1ccc(OCC(=O)Nc2ccc(F)cc2)cc1`, the percent span entry was “inactive”.

`CC1CC2=C(NC(=S)NC2c2ccccc2F)/C(=C/c2ccccc2F)C1` (stereo not drawn): the percent span result was “inactive”. To `Cc1ccc(C(NC(=O)C(C)C)c2cc([N+](=O)[O-])c3cccnc3c2O)cc1` (stereo not drawn) belongs “inactive”; to `Cc1ccc(NC2=C(Cl)C(=O)c3ccccc3C2=O)cc1`, “inactive”; to `CCC(CC)C(=O)Nc1cccc(S(=O)(=O)c2cccc(NC(=O)C(CC)CC)c2)c1`, “inactive”. To `COCCn1nnnc1CN(Cc1ccco1)Cc1cc2cc3c(cc2[nH]c1=O)OCO3` belongs “inactive”. On to `O=C(Nc1ccc2nc(-c3ccco3)c(-c3ccco3)nc2c1)NC1CC1`, for which the percent span entry was “inactive”. With `O=C1NC(=O)C(=Cc2ccc(-c3cc(Cl)ccc3[N+](=O)[O-])o2)C(=O)N1`, the percent span result is “inactive”.

For `Cc1cc(N2CCN(C)CC2)nc2ccc(NC(=S)N3CCCCC3)cc12`, the percent span entry is “inactive”. For the molecule `Cc1[nH]n(C(N)=S)c(=O)c1N=Nc1ccc(S(=O)(=O)N2CCCCCC2)cc1`, the percent span result is “inactive”.

`CC(C)(C)OC(=O)N1CCN(C(=O)[C@H](Cc2ccc(O)cc2)n2cc(CCO)nn2)CC1`: the percent span entry is “inactive”.

Consider `Cc1ccc(-c2nnc(Cc3ccc(Cl)cc3)o2)cc1`, for which the percent span result is “inactive”.

Regarding `Cc1ccnc(NS(=O)(=O)c2ccc(NC(=O)c3c(-c4ccccc4Cl)noc3C)cc2)n1`, the percent span result is “inactive”. As to `CCOC(=O)N1CCC(c2cc(=O)n(-c3ccccc3)[nH]2)CC1`, the percent span result was “inactive”. As for `O=C(CSc1nc2ccsc2c(=O)n1Cc1ccc(C(=O)O)cc1)NCC1CCCO1` (stereo not drawn), the percent span result was “inactive”. To `CCC(CC)C(=O)Nc1cccc(SC)c1` belongs “inactive”; to `Cc1ccccc1OCC(=O)N/N=C/c1ccccn1`, “inactive”; to `Clc1ccc2c(N/N=C/c3ccc(Br)cc3)ccnc2c1`, “inactive”. To `COc1ccc(Cl)cc1-n1c(C)cc(C=O)c1C` belongs “inactive”; to `Cc1cc(-c2nn(-c3ccccc3)cc2/C=C2\SC(N)=NC2=O)ccc1OC(C)C`, “inactive”; to `CC1=C2C(CCS2(=O)=O)CC2(C1)C(=O)OC(C)(C)OC2=O` (stereo not drawn), “inactive”. For `CN(C)[C@@H]1C(=O)C(C(=O)NCN2CCCC2)=C(O)[C@@]2(O)C(=O)C3=C(O)c4c(O)cccc4[C@@](C)(O)C3CC12` (stereo partly drawn), the percent span result is “inactive”. Consider `Cc1nc2ccccc2n1CSc1ccccc1`, for which the percent span entry was “inactive”. To `CC(C)c1ccc(/C=N/NC(=O)c2ccccc2Cl)cc1` belongs “inactive”.

Consider `Cc1cc(C)c(C)c(S(=O)(=O)N2CCN(CC(=O)NC(=O)NCc3ccccc3)CC2)c1C`, for which the percent span result was “inactive”. Turning to `CCN1CCN(c2ccc(NC(=O)c3cccc4ncccc34)cc2)CC1`, the percent span entry is “inactive”. To `CCCCCCn1nc(C(=O)Nc2nc3c(s2)CCCC3)c2ccccc2c1=O` belongs “inactive”; to `Cc1c(N2C(=O)c3ccc4c5c(ccc(c35)C2=O)CC4)c(=O)n(-c2ccccc2)n1C`, “inactive”. `COc1ccccc1NC(=O)CSc1ncn(-c2ccccc2)n1`: the percent span result was “inactive”. For the molecule `Cc1cc(OCc2cn3cccnc3n2)ccc1Cl`, the percent span result is “inactive”.

Regarding `c1ccc(C2=Nc3cccc4cccc(c34)N2)cc1`, the percent span entry is “inactive”. Consider `CCc1nnc(NS(=O)(=O)c2ccc(N=CC3=C(O)CC(C)(C)CC3=O)cc2)s1`, for which the percent span result is “inactive”. With `CCOc1ccc(C(=O)Nc2nnn(CC)n2)cc1`, the percent span result was “inactive”. `CN(C)C(Cc1ccccc1)C(=O)c1cccs1` (stereo not drawn): the percent span entry was “inactive”. As to `O=C1C=C(Nc2ccccc2)C(=O)c2ccccc21`, the percent span result is “inactive”. To `O=C(Oc1ccc(-c2cnc3ccccc3n2)cc1)c1cccc([N+](=O)[O-])c1` belongs “inactive”; to `Cc1cc(-c2csc(N)n2)c(C)n1CCc1ccccc1`, “inactive”. Regarding `COc1ccccc1N(C)S(=O)(=O)c1ccc(C(=O)OCC(N)=O)cc1`, the percent span entry is “inactive”. On to `CS(=O)(=O)NN1C(=O)c2ccccc2NC1c1ccccc1` (stereo not drawn), for which the percent span entry is “inactive”. To `CCCC1(C(=O)OCC)NC(c2cc(OC)c(OC)c(OC)c2)C2C(=O)N(CC)C(=O)C21` (stereo not drawn) belongs “inactive”; to `COc1ccc(NC(=O)COc2ncnc3ccccc23)cc1S(=O)(=O)N1CCOCC1`, “inactive”; to `Cc1ccc(-c2n[nH]c(=S)n2-c2ccccc2)cc1`, “inactive”. On to `CC(C)c1ccc(C2CC(c3ccc(Br)cc3)=NN2C(N)=S)cc1` (stereo not drawn), for which the percent span entry is “inactive”.

With `COc1cc(/C=C2\S/C(=N/S(=O)(=O)c3ccc(C)cc3)NC2=O)c([N+](=O)[O-])cc1OC`, the percent span result is “inactive”. As to `CCN1/C(=C\c2ccc3cc(C)ccc3[n+]2CC)Sc2cc(C)c(C)cc21`, the percent span result was “inactive”. As to `COc1cc(C2Nc3cccc4cccc(c34)N2)cc(OC)c1O`, the percent span result was “inactive”. To `Cn1c(=O)c(C(=O)COC(=O)c2cc(-c3ccco3)nc3ccccc23)c(N)n(CC2CC2)c1=O` belongs “inactive”.

In the case of `Cc1c(NC2=C(Cl)C(=O)N(c3ccccc3)C2=O)c(=O)n(-c2ccccc2)n1C`, the percent span result was “inactive”. As to `CCOC(=O)C1CCN(C(=O)Nc2ccc3nc(-c4ccco4)c(-c4ccco4)nc3c2)CC1`, the percent span entry was “inactive”. To `Cc1ccc(-c2cc(C(=O)OCC(=O)N(C)C3CCS(=O)(=O)C3)c3ccccc3n2)o1` (stereo not drawn) belongs “inactive”; to `CC(C)C(=O)N1CCN(c2ccc([N+](=O)[O-])cc2Cl)CC1`, “inactive”; to `Fc1ccc(/C=C2\CCCC3=C2NC(=S)NC3c2ccc(F)cc2)cc1` (stereo not drawn), “inactive”.

Regarding `CN(Cc1cccs1)C(=O)CCc1c[nH]c2ccccc12`, the percent span result was “inactive”. On to `COc1ccc(NC(=O)c2c(F)cccc2F)cc1S(=O)(=O)Nc1ccc(Br)cc1`, for which the percent span result was “inactive”. For `CCOC(=O)c1cc2c(=O)n3cccc(C)c3nc2n(Cc2ccco2)c1=NC(=O)c1ccccc1`, the percent span entry is “inactive”. Turning to `O=C(NCCc1ccccc1)c1ccc2nc(-c3ccco3)c(-c3ccco3)nc2c1`, the percent span result was “inactive”. To `CC(C)COC(=O)/C(C#N)=C/c1cn(Cc2ccccc2)c2ccccc12` belongs “inactive”; to `COc1ccccc1-n1c(-c2ccc(Cl)cc2)c[nH]c1=S`, “inactive”. To `COc1ccc2nc(C)cc(SCC(=O)N/N=C/c3ccc(O)c(O)c3)c2c1` belongs “inactive”; to `COC(=O)Cc1ccc(NC(=S)N2CCN(c3cccc(O)c3)CC2)cc1`, “inactive”. As for `CC(CCc1ccccc1)NC(=O)C1CCN(S(=O)(=O)N2CCCCC2)CC1` (stereo not drawn), the percent span result was “inactive”. As for `O=C(CCCN1C(=O)c2cccc3cccc(c23)C1=O)N1CCN(c2ccccn2)CC1`, the percent span result was “inactive”. Regarding `CCNC(=S)Nc1cc(OCC)c(NC(=O)c2cccs2)cc1OCC`, the percent span result was “inactive”. With `O=C(CNC(=O)c1ccc(S(=O)(=O)N2CCCC2)cc1)N/N=C/c1ccc(Cl)cc1Cl`, the percent span entry is “inactive”. As for `CCOC(=O)c1cc2c(=O)n3ccccc3nc2n(Cc2ccco2)c1=NC(=O)c1ccccc1OC`, the percent span result was “inactive”. On to `O=[N+]([O-])c1ccc(-c2cn(-c3ccc(Cl)cc3)c(=S)[nH]2)cc1`, for which the percent span entry was “inactive”. On to `COc1ccc(NC(=O)/C(C#N)=C/c2c(C)nn(-c3ccc(F)cc3)c2Cl)cc1Cl`, for which the percent span entry was “inactive”. As for `Cc1ccc2c(C)c(C(=O)Nc3nnc(C)s3)oc2c1`, the percent span result was “inactive”. Take `COc1ccc(NC(=O)c2ccc3c(c2)NC(=O)CS3)cc1S(=O)(=O)Nc1ccc(Br)cc1`: the percent span result was “inactive”. With `Cn1c(CNc2nc(-c3ccccc3)cs2)nnc1SCC(=O)N1CCc2ccccc21`, the percent span entry was “inactive”.
